Laboratory results taken from ChEMBL document CHEMBL5375952, “Discovery of Novel 8-Hydroxyquinoline Derivatives with Potent In Vitro and In Vivo Antifungal Activity” (J Med Chem, 2023).
Values after ≈ are worked out from the molar mass of the structure shown. Active and inactive are the calls of the source. The calls are words filed in the database; no cut-off is given here.

Experiments:
[1] = tested on: Candida albicans; assay: Antifungal activity against Candida albicans SC5314 assessed as fungal growth inhibition incubated for 48 hrs in presence of Ca2+ by broth microdilution method; type: functional, organism-based
[2] = tested on: Candida albicans; assay: Antifungal activity against Candida albicans SC5314 assessed as fungal growth inhibition incubated for 48 hrs in presence of K+ by broth microdilution method; type: functional, organism-based
[3] = tested on: Candida albicans; assay: Antifungal activity against Candida albicans SC5314 assessed as fungal growth inhibition incubated for 48 hrs in presence of Mg2+ by broth microdilution method; type: functional, organism-based
[4] = tested on: Candida albicans; assay: Antifungal activity against Candida albicans SC5314 assessed as fungal growth inhibition incubated for 48 hrs in presence of Zn2+ by broth microdilution method; type: functional, organism-based
[5] = tested on: Cryptococcus neoformans; assay: Antifungal activity against Cryptococcus neoformans 444 assessed as fungal growth inhibition incubated for 48 hrs by broth microdilution method; type: functional
[6] = tested on: Aspergillus fumigatus; assay: Antifungal activity against Aspergillus fumigatus 023-12 assessed as fungal growth inhibition incubated for 48 hrs by broth microdilution method; type: functional
[7] = tested on: [Candida] auris; assay: Antifungal activity against Candida auris 277 assessed as fungal growth inhibition incubated for 48 hrs by broth microdilution method; type: functional; conditions: Candidozyma auris
[8] = tested on: [Candida] auris; assay: Antifungal activity against Candida auris 278 assessed as fungal growth inhibition incubated for 48 hrs by broth microdilution method; type: functional; conditions: Candidozyma auris
[9] = tested on: Nakaseomyces glabratus; assay: Antifungal activity against Candida glabrata 203 assessed as fungal growth inhibition incubated for 48 hrs by broth microdilution method; type: functional
[10] = tested on: Candida parapsilosis; assay: Antifungal activity against Candida parapsilosis 106 assessed as fungal growth inhibition incubated for 48 hrs by broth microdilution method; type: functional; conditions: Lodderomyces parapsilosis
[11] = tested on: Candida albicans; assay: Antifungal activity against Candida albicans SC5314 infected in C57BL/6 mouse assessed as mean fungal burden at 2 mg/kg, ip measured after 46 hrs by plate count method (reference value: 6.890 log10CFU/ml); type: functional
[12] = Toxicity in C57BL/6 mouse infected with Candida albicans SC5314 assessed as mean survival time at 2 mg/kg, ip (reference value: 5 day); type: organism-based; conditions: in vivo, 120 h
[13] = tested on: Candida albicans; assay: Antifungal activity against FLC-resistant Candida albicans 304103 assessed as fungal growth inhibition incubated for 48 hrs by broth microdilution method; type: functional
[14] = tested on: Candida albicans; assay: Antifungal activity against FLC-resistant Candida albicans 8 assessed as fungal growth inhibition incubated for 48 hrs by broth microdilution method; type: functional
[15] = tested on: Candida albicans; assay: Antifungal activity against FLC-resistant Candida albicans 10 assessed as fungal growth inhibition incubated for 48 hrs by broth microdilution method; type: functional
[16] = tested on: Candida albicans; assay: Antifungal activity against FLC-resistant Candida albicans 11 assessed as fungal growth inhibition incubated for 48 hrs by broth microdilution method; type: functional
[17] = tested on: Candida albicans; assay: Antifungal activity against FLC-resistant Candida albicans 12 assessed as fungal growth inhibition incubated for 48 hrs by broth microdilution method; type: functional
[18] = tested on: Candida albicans; assay: Antifungal activity against FLC-resistant Candida albicans 14 assessed as fungal growth inhibition incubated for 48 hrs by broth microdilution method; type: functional
[19] = tested on: Candida albicans; assay: Antifungal activity against FLC-resistant Candida albicans 17 assessed as fungal growth inhibition incubated for 48 hrs by broth microdilution method; type: functional
[20] = tested on: Candida albicans; assay: Antifungal activity against FLC-resistant Candida albicans 100 assessed as fungal growth inhibition incubated for 48 hrs by broth microdilution method; type: functional
[21] = tested on: Candida albicans; assay: Antifungal activity against FLC-resistant Candida albicans 241 assessed as fungal growth inhibition incubated for 48 hrs by broth microdilution method; type: functional
[22] = tested on: Candida albicans; assay: Antifungal activity against FLC-resistant Candida albicans 249 assessed as fungal growth inhibition incubated for 48 hrs by broth microdilution method; type: functional
[23] = tested on: Candida albicans; assay: Antifungal activity against FLC-resistant Candida albicans 305 assessed as fungal growth inhibition incubated for 48 hrs by broth microdilution method; type: functional
[24] = tested on: Candida albicans; assay: Antifungal activity against FLC-resistant Candida albicans 379 assessed as fungal growth inhibition incubated for 48 hrs by broth microdilution method; type: functional
[25] = tested on: Candida albicans; assay: Antifungal activity against FLC-resistant Candida albicans 385 assessed as fungal growth inhibition incubated for 48 hrs by broth microdilution method; type: functional
[26] = tested on: Candida albicans; assay: Antifungal activity against FLC-resistant Candida albicans 395 assessed as fungal growth inhibition incubated for 48 hrs by broth microdilution method; type: functional
[27] = tested on: Candida albicans; assay: Antifungal activity against FLC-resistant Candida albicans 538 assessed as fungal growth inhibition incubated for 48 hrs by broth microdilution method; type: functional
[28] = tested on: Candida albicans; assay: Antifungal activity against FLC-resistant Candida albicans 540 assessed as fungal growth inhibition incubated for 48 hrs by broth microdilution method; type: functional
[29] = tested on: Candida albicans; assay: Antifungal activity against FLC-resistant Candida albicans 646 assessed as fungal growth inhibition incubated for 48 hrs by broth microdilution method; type: functional
[30] = tested on: Candida albicans; assay: Antifungal activity against FLC-resistant Candida albicans 819 assessed as fungal growth inhibition incubated for 48 hrs by broth microdilution method; type: functional
[31] = tested on: Candida albicans; assay: Antifungal activity against FLC-resistant Candida albicans 953 assessed as fungal growth inhibition incubated for 48 hrs by broth microdilution method; type: functional
[32] = tested on: Candida albicans; assay: Antifungal activity against FLC-resistant Candida albicans 1221 assessed as fungal growth inhibition incubated for 48 hrs by broth microdilution method; type: functional
[33] = tested on: Candida albicans; assay: Antifungal activity against FLC-resistant Candida albicans 5740 assessed as fungal growth inhibition incubated for 48 hrs by broth microdilution method; type: functional
[34] = tested on: Candida albicans; assay: Antifungal activity against FLC-resistant Candida albicans 64548 assessed as fungal growth inhibition incubated for 48 hrs by broth microdilution method; type: functional
[35] = tested on: Candida albicans; assay: Antifungal activity against FLC-resistant Candida albicans 512644 assessed as fungal growth inhibition incubated for 48 hrs by broth microdilution method; type: functional
[36] = tested on: Candida albicans; assay: Antifungal activity against FLC-resistant Candida albicans 512681 assessed as fungal growth inhibition incubated for 48 hrs by broth microdilution method; type: functional
[37] = tested on: Candida albicans; assay: Antifungal activity against FLC-resistant Candida albicans 605141 assessed as fungal growth inhibition incubated for 48 hrs by broth microdilution method; type: functional
[38] = tested on: Candida albicans; assay: Antifungal activity against FLC-resistant Candida albicans 710419 assessed as fungal growth inhibition incubated for 48 hrs by broth microdilution method; type: functional
[39] = tested on: Candida albicans; assay: Antifungal activity against FLC-resistant Candida albicans 710452 assessed as fungal growth inhibition incubated for 48 hrs by broth microdilution method; type: functional
[40] = tested on: Candida albicans; assay: Antifungal activity against FLC-resistant Candida albicans 710506 assessed as fungal growth inhibition incubated for 48 hrs by broth microdilution method; type: functional
[41] = tested on: Candida albicans; assay: Antifungal activity against FLC-resistant Candida albicans 710513 assessed as fungal growth inhibition incubated for 48 hrs by broth microdilution method; type: functional
[42] = tested on: Candida albicans; assay: Antifungal activity against FLC-resistant Candida albicans 710554 assessed as fungal growth inhibition incubated for 48 hrs by broth microdilution method; type: functional
[43] = tested on: Candida albicans; assay: Inhibition of mature biofilm formation of Candida albicans SC5314 upto 16 ug/ml incubated for 24 hrs by XTT assay; type: functional, organism-based; conditions: dose <= 16.0 µg/ml
[44] = Cytotoxicity against HUVEC cells assessed as cell growth inhibition incubated for 24 hrs by CCK8 assay; type: toxicity, cell-based; conditions: human
[45] = tested on: Candida albicans; assay: Synergistic antifungal activity against FLC-resistant Candida albicans 100 assessed as fungal growth inhibition incubated for 48 hrs in presence of FLC by broth microdilution method; type: functional
[46] = tested on: Candida albicans; assay: Synergistic antifungal activity against FLC-resistant Candida albicans 5740 assessed as fungal growth inhibition incubated for 48 hrs in presence of FLC by broth microdilution method; type: functional

SMILES: Oc1c(I)cc(Cl)c2cccnc12 [CLIOQUINOL]
- growth inhibition (GI) [1]: Active
- growth inhibition (GI) [2]: Active
- growth inhibition (GI) [3]: Active
- growth inhibition (GI) [4]: Active
- MIC [5]: 0.125 mg/L (≈ 0.409 µM)
- MIC [6]: 0.25 mg/L (≈ 0.818 µM)
- MIC [7]: 0.063 mg/L (≈ 0.206 µM)
- MIC [8]: 0.125 mg/L (≈ 0.409 µM)
- MIC [9]: 0.125 mg/L (≈ 0.409 µM)
- MIC [10]: 0.25 mg/L (≈ 0.818 µM)
- Activity [11]: 6.683 log10CFU/g
- Survival [12]: 5 days

SMILES: OC(Cn1cncn1)(Cn1cncn1)c1ccc(F)cc1F [FLUCONAZOLE]
- MIC [5]: 8 mg/L (≈ 26.1 µM)
- MIC [6]: > 64 mg/L
- MIC [7]: 4 mg/L (≈ 13.1 µM)
- MIC [8]: > 64 mg/L
- MIC [9]: 0.125 mg/L (≈ 0.408 µM)
- MIC [10]: 0.5 mg/L (≈ 1.63 µM)
- MIC [13]: 32 mg/L (≈ 104 µM)
- MIC [14]: 16 mg/L (≈ 52.2 µM)
- MIC [15]: 32 mg/L (≈ 104 µM)
- MIC [16]: 32 mg/L (≈ 104 µM)
- MIC [17]: 32 mg/L (≈ 104 µM)
- MIC [18]: 32 mg/L (≈ 104 µM)
- MIC [19]: 32 mg/L (≈ 104 µM)
- MIC [20]: 16 mg/L (≈ 52.2 µM)
- MIC [21]: > 64 mg/L
- MIC [22]: 32 mg/L (≈ 104 µM)
- MIC [23]: > 64 mg/L
- MIC [24]: > 64 mg/L
- MIC [25]: > 64 mg/L
- MIC [26]: 32 mg/L (≈ 104 µM)
- MIC [27]: > 64 mg/L
- MIC [28]: > 64 mg/L
- MIC [29]: > 64 mg/L
- MIC [30]: 32 mg/L (≈ 104 µM)
- MIC [31]: > 64 mg/L
- MIC [32]: > 64 mg/L
- MIC [33]: 32 mg/L (≈ 104 µM)
- MIC [34]: > 64 mg/L
- MIC [35]: > 64 mg/L
- MIC [36]: > 64 mg/L
- MIC [37]: > 64 mg/L
- MIC [38]: > 64 mg/L
- MIC [39]: > 64 mg/L
- MIC [40]: > 64 mg/L
- MIC [41]: > 64 mg/L
- MIC [42]: > 64 mg/L
- inhibition [43]: inactive
- IC50 at 24 h [44]: 9.18 mg/L (≈ 30 µM)

SMILES: CCN(CC)c1ccc(C(NC(=O)C(C)C)c2ccc3cccnc3c2O)cc1 (stereo unspecified)
- growth inhibition (GI) [1]: Active
- growth inhibition (GI) [2]: Active
- growth inhibition (GI) [3]: Active
- growth inhibition (GI) [4]: Active
- MIC [5]: 0.016 mg/L (≈ 0.0409 µM)
- MIC [6]: 0.5 mg/L (≈ 1.28 µM)
- MIC [7]: 0.063 mg/L (≈ 0.161 µM)
- MIC [8]: 0.125 mg/L (≈ 0.319 µM)
- MIC [9]: 0.016 mg/L (≈ 0.0409 µM)
- MIC [10]: 0.063 mg/L (≈ 0.161 µM)
- MIC [13]: 0.25 mg/L (≈ 0.639 µM)
- MIC [14]: 0.125 mg/L (≈ 0.319 µM)
- MIC [15]: 0.125 mg/L (≈ 0.319 µM)
- MIC [16]: 0.25 mg/L (≈ 0.639 µM)
- MIC [17]: 0.25 mg/L (≈ 0.639 µM)
- MIC [18]: 0.125 mg/L (≈ 0.319 µM)
- MIC [19]: 0.5 mg/L (≈ 1.28 µM)
- MIC [20]: 0.125 mg/L (≈ 0.319 µM)
- MIC [21]: 0.5 mg/L (≈ 1.28 µM)
- MIC [22]: 0.25 mg/L (≈ 0.639 µM)
- MIC [23]: 0.5 mg/L (≈ 1.28 µM)
- MIC [24]: 0.25 mg/L (≈ 0.639 µM)
- MIC [25]: 0.125 mg/L (≈ 0.319 µM)
- MIC [26]: 0.125 mg/L (≈ 0.319 µM)
- MIC [27]: 0.25 mg/L (≈ 0.639 µM)
- MIC [28]: 0.25 mg/L (≈ 0.639 µM)
- MIC [29]: 0.125 mg/L (≈ 0.319 µM)
- MIC [30]: 0.125 mg/L (≈ 0.319 µM)
- MIC [31]: 0.5 mg/L (≈ 1.28 µM)
- MIC [32]: 0.25 mg/L (≈ 0.639 µM)
- MIC [33]: 0.063 mg/L (≈ 0.161 µM)
- MIC [34]: 0.5 mg/L (≈ 1.28 µM)
- MIC [35]: 0.25 mg/L (≈ 0.639 µM)
- MIC [36]: 0.25 mg/L (≈ 0.639 µM)
- MIC [37]: 0.5 mg/L (≈ 1.28 µM)
- MIC [38]: 0.5 mg/L (≈ 1.28 µM)
- MIC [39]: 0.125 mg/L (≈ 0.319 µM)
- MIC [40]: 1 mg/L (≈ 2.55 µM)
- MIC [41]: 0.5 mg/L (≈ 1.28 µM)
- MIC [42]: 0.5 mg/L (≈ 1.28 µM)
- MIC [45]: 0.016 mg/L
- MIC [46]: 0.016 mg/L
- inhibition [43]: inactive
- IC50 at 24 h [44]: 67.8 mg/L (≈ 173 µM)
- Activity [11]: 6.283 log10CFU/g
- Survival [12]: 6.5 days
